In patent publication US20240002383A1 (priority 2021, published 2024):
“Also recorded” adds a separate entry of the source.

Experiments:
HIV NHR trimer (N3G) = type: in vivo; settings: mice, CF501 as adjuvant, sera 7 days after the second vaccination
[1] = system: cytokines in draining lymph nodes; settings: mouse, in vivo
[2] = system: IFNγ, TNFα and IL-4 secretion; set-up: species or system mice; settings: mouse, in vivo
[3] = system: IFNb, CXCL-10, CXCL-9, CCL-2, TNFα, IL-1β, and IL-6 in lymph nodes; test: Innate immune response in mice after intramuscular injection of STING agonists (qPCR of cytokines in draining lymph nodes); type: in vivo; settings: 20 μg intramuscular, 6 hrs
SARS-CoV-2 pseudovirus = system: SARS-CoV-2 pseudovirus; set-up: species or system New Zealand white rabbits; settings: rabbit, in vivo

Row | SMILES | production of the cytokines in lymph nodes [3] | neutralizing antibodies relative to Alum (in words) (SARS-CoV-2 pseudovirus) | also measured
1 | CCn1nc(C)cc1C(=O)Nc1nc2cc(C(N)=O)cnc2n1C/C=C/Cn1c(NC(=O)c2cc(C)nn2CC)nc2cc(C(N)=O)cc(OCCCN3CCOCC3)c21 [CF501, (E)-3-(4-(5-carbamoyl-2-(1-ethyl-3-methyl-1H-pyrazole-5-carboxamido)-7-(3-morpholinopropoxy)-1H-benzo[d]imidazol-1-yl)but-2-en-1-yl)-2-(1-ethyl-3-methyl-1H-pyrazole-5-carboxamido)-3H-imidazo[4,5-b]pyridine-6-carboxamide] | can activate a large production of the cytokines; also recorded: more potently than cGAMP | – | antibody immune response to the HIV NHR trimer (N3G) (HIV NHR trimer (N3G)): can significantly enhance the antibody immune response in vaccinated mice; inflammation in the mice (transient activation, safety) [1]: does not cause inflammation in the mice; T cell immune response in mice [2]: can strongly activate the T cell immune response in mice
2 | CCn1nc(C)cc1C(=O)Nc1nc2cc(C(N)=O)ccc2n1C/C=C/Cn1c(NC(=O)c2cc(C)nn2CC)nc2cc(C(N)=O)cnc21 [CF502, (E)-3-(4-(5-carbamoyl-2-(1-ethyl-3-methyl-1H-pyrazole-5-carboxamido)-1H-benzo[d]imidazol-1-yl)but-2-en-1-yl)-2-(1-ethyl-3-methyl-1H-pyrazole-5-carboxamido)-3H-imidazo[4,5-b]pyridine-6-carboxamide] | – | could not induce more potent neutralizing antibodies relative to Alum in the rabbits | –
3 | CCn1nc(C)cc1C(=O)Nc1nc2cc(C(N)=O)cnc2n1C/C=C/Cn1c(NC(=O)c2cc(C)nn2CC)nc2cc(C(N)=O)cc(OCCCN3CCNCC3)c21 [CF508, (E)-3-(4-(5-carbamoyl-2-(1-ethyl-3-methyl-1H-pyrazole-5-carboxamido)-7-(3-(piperazin-1-yl)propoxy)-1H-benzo[d]imidazol-1-yl)but-2-en-1-yl)-2-(1-ethyl-3-methyl-1H-pyrazole-5-carboxamido)-3H-imidazo[4,5-b]pyridine-6-carboxamide] | – | could not induce more potent neutralizing antibodies relative to Alum in the rabbits | –
4 | CCn1nc(C)cc1C(=O)Nc1nc2cc(C(N)=O)cnc2n1C/C=C/Cn1c(NC(=O)c2cc(C)nn2CC)nc2cc(C(N)=O)cc(OCCN3CCOCC3)c21 [CF510, (E)-3-(4-(5-carbamoyl-2-(1-ethyl-3-methyl-1H-pyrazole-5-carboxamido)-7-(2-morpholinoethoxy)-1H-benzo[d]imidazol-1-yl)but-2-en-1-yl)-2-(1-ethyl-3-methyl-1H-pyrazole-5-carboxamido)-3H-imidazo[4,5-b]pyridine-6-carboxamide] | – | could not induce more potent neutralizing antibodies relative to Alum in the rabbits | –
5 | CCn1nc(C)cc1C(=O)/N=c1\n(C)c2cc(C(N)=O)cnc2n1C/C=C/Cn1/c(=N/C(=O)c2cc(C)nn2CC)n(C)c2cc(C(N)=O)cc(OCCCN3CCOCC3)c21 [CF512, (E)-3-((E) 4-((E)-5-carbamoyl-2-((1-ethyl-3-methyl-1H-pyrazole-5-carbonyl)imino)-3-methyl-7-(3-morpholinopropoxy)-2,3-dihydro-1H-benzo[d]imidazol-1-yl)but-2-en-1-yl)-2-((1-ethyl-3-methyl-1H-pyrazole-5-carbonyl)imino)-1-methyl-2,3-dihydro-1H-imidazo[4,5-b]pyridine-6-carboxamide] | – | could not induce more potent neutralizing antibodies relative to Alum in the rabbits | –
6 | Nc1nc2c(ncn2[C@@H]2O[C@@H]3COP(=O)(O)O[C@H]4[C@@H](O)[C@H](n5cnc6c(N)ncnc65)O[C@@H]4COP(=O)(O)O[C@H]3[C@H]2O)c(=O)[nH]1 [cGAMP, 3′-3′ cGAMP, reference compound] | can activate a large production of the cytokines | – | –
